# Source: patent US7339042B2, “Gene delivery to tumors” (University of Florida Research Foundation, Inc., priority 2003, dated 2008)
# “Also recorded” adds a separate entry of the source. No end group written: not given here.
# Legend:
# [1] = test system: T98G cells; test: Fusion peptide cell killing, propidium iodide/FACS viability, T98G cells; format: cell-based, human; settings: 10 μM peptide, 1 hr
# Method: (§1) Other experiments were performed using two glioma cell lines, i.e., T98G and RG2. 1×10^6 cells per well were incubated in 6-well plates with peptides in complete media for 1 hr. Cells were removed from the plate using a cell stripper and the percentage of viable cells was determined by staining with propidium iodide and analyzing by fluorescence activated cell sorting (FACS).
# (§2) Cell viability studies were performed by plating the cells under the same conditions as the uptake studies. Cells were incubated with fluorescent peptides for 1 hr at 37° C. The cells were removed from the plate using cell striper. They were labeled with propidium iodide and fluorescein-AM. Percent PI positive cells were determined by FACS.
# [2] = test system: RG2 cells; test: Fusion peptide cell killing, propidium iodide/FACS viability, RG2 cells; format: cell-based, rat
# Method: as §1
# There are 4 conserved amino acid differences between the rat and human CDKI sequence. Both sequences were attached to Tat and tested for cell killing activity in the rat glioma RG2 cells. Also the effect of orientation of the Tat and CDKI domains were tested. RG2 cells were plated on 6 well plates at approximately 70% confluency. Each of the peptides was added to the wells with increasing concentration. After 1 hr, cells were removed from the plates, washed 2× with PBS, stained with propidium iodide and analyzed by FACS for viable cells.
# as §2
# The cytotoxicity of the chimeric peptides was characterized using a cell viability assay. Peptides were added to cells at a fixed concentration. After a 30-minute incubation, cells were removed from the plate, stained with propidium iodide and the % positive cells were determined by FACS (fluorescent activated cell scanning). The test conditions were Tat, ANT, Tat-P14ARF, ANT-P14ARF and P14ARF. T98G cells were tested along with RG2 cells and A172 cells.
# [3] = test system: A172 glioblastoma cells; test: Peptide incubation with A172 glioblastoma cells, viability; format: cell-based, human; settings: 6 μM, 30 minutes at 37° C.
# Method: Fusion proteins containing a Tat domain and a p16 domain were synthesized as peptides. Two forms of the peptides were made, one with Tat on the amino terminus (designated Tat-P16), and the other with p16 on the amino terminus (P16-Tat). Control peptides were synthesized having only the Tat or P16 sequence. The peptides were incubated with A172 glioblastoma cells, then the cells were assayed for viability.
# [4] = test system: A172 cells; test: Fluorescein peptide uptake by A172 cells, fluorescence microscopy; format: cell-based, human; settings: 30 uM peptide, 1 hr, 37° C., serum containing media
# Method: (§3) For fluorescent microscopy studies cells were plated on 2 chamber cover slips at a density of 1×10^4 cells/chamber. Cells were incubated with […] peptide for 30 minutes in completed media, washed with PBS 3× and imaged using a Nikon Axiophot inverted fluorescent microscope. Images were taken using a Spot CCD camera.
# Synthetic peptides derived from HIV Tat (Tat) and the Drosophila antennaepedia homeodomain (ANT) were tested for cell uptake by A172 cells (human glioblastomas). The peptides were labeled at the N-terminus with fluorescein. Cells were incubated with 30 uM peptide at 37° C. in serum containing media. Fluorescent micrographs were taken after 1 hr incubation at 37° C. […] The size of the peptide was increased by added an Mdm-2 binding domain derived from P14ARF. This domain was added to the C-terminus of the Tat and ANT peptides. The P14ARF domain was also placed at the N-terminus followed by the Tat peptide. All the peptides were labeled at the N-terminus with fluorescein and cell incubations similar to the Tat and ANT peptides were tested for cellular uptake. […] Both the bright field and fluorescent micrographs show altered cell morphology.
# [5] = test system: RG2 cells; test: Fluorescein peptide uptake by RG2 cells, fluorescence microscopy; format: cell-based, rat
# Method: as §3
# Similar observations were obtained for all the peptides in another human glioblastoma cell line, T98G.
# [6] = test system: endothelial cells and smooth muscle cells of rat cerebral arteries; test: Uptake of fluorescent peptides by pressure-mounted rat cerebral arteries; format: cell-based
# Method: Tat-P16 peptides were prepared and labeled with fluorescein for use in uptake studies using intact blood vessels isolated from rat brain. Blood vessels were dissected from rat brain and stabilized in an isolated perfusion system in which vessels were attached on either end to catheters and placed under physiological pressure. Following a 10 minute perfusion of the isolated vessels with flurorescent Tat-P16 peptide (1 μM), vessels were examined for uptake of the peptides. […] Within the endothelial cells, the labeled peptides were seen to be localized to the cell nuclei, further confirming uptake of the peptides by the cells.
# The peptides are fairly labile in the media and approximately 50% are degraded upon incubation at 37° C. in complete media (qualitative analysis by PAGE) after 1 hour. […] Uptake of these peptides and cell killing activity was tested in a 3 dimensional organ culture using rat cerebral arteries cultured under physiological pressure and flow. A segment of the rat cerebral artery is surgically removed and placed in ringer's solution. Using a surgical stereoscope, the blood vessel is tied at either end to two cannulas on a teflon stage. Ringer's solution is perfused through the lumen of the vessel at a constant rate that maintains physiologic hydrostatic pressure. The fluorescent peptide was introduced intraluminally by perfusing a 1 μM solution of peptide through the lumen over a 10 minute period.
# Rats were anesthetized by intraperitoneal injection of pentobarbital sodium (160 mg/kg) and killed by decapitation. The brain was removed and placed in an ice-cold oxygenated physiological cerebrospinal fluid (PCSF, see below for composition). Cerebellar arteries were isolated and mounted in an arteriograph as described previously (Knot and Nelson 1998). The arteriograph was placed on an inverted microscope and the artery was visualized with a monochrome CCD camera coupled to a calibrated video caliper system to measure arterial diameter. The arteries were slowly pressurized to 70 mmHg under no flow conditions using a pressure servo-null system (Living Systems Inc., Burlington Vt.), and warmed to 37° C. while being continuously superfused (5 ml/min) with PCSF bubbled with 21% O2, 5% CO2, 74% N2 (pH 7.35-7.40 in the bath). […] Myogenic tone is calculated by the following equation: Myogenic tone=(Dp−Da)/Dp×100
# (§4) In some experiments, the arterial segments were denuded of endothelium by passing an air bubble through the lumen, thus exposing the smooth muscle cells to luminally administered peptides. Constriction to pressure and 60 mM KCl and dilation of arteries with myogenic tone to 16 mM KCl were used as benchmarks of functional arteries. Peptide containing PCSF was perfused intraluminally at an inlet pressure of 70 mmHg with the outlet open, for 20 min and then perfused with normal PCSF. This procedure ensures a 20 min of exposure of the arteries to the peptide.
# [7] = test system: rat cerebral arteries; test: Vasodilation and vasoconstriction response of rat cerebral arteries before and after peptide; format: cell-based; settings: after vs before intraluminal peptide
# Method: The blood vessels were put in culture described above and perfused with buffer of the same composition as cerebrospinal fluid. Vessel diameter was measured before and after administration of each reagent. 3 μM of each peptide was perfused through for 10 minutes followed by a 10 minute wash through. Vasoconstriction and vasodilation were determined for each vessel before peptide was applied. Perfusion was continued until the vessels relaxed to their original diamter (approximately 30 minutes). The vasoconstriction and vasodilation reponse was remeasured after the 10 minute wash through. The 60 mM KCl and 16 mM KCl conditions are […], respectively. Histamine and Bradykinin are endothelial cell vasodilators.
# as §4
# (§5) Effect of peptide on endothelial and smooth muscle function was evaluated by histamine (0.3 and 1 μM) and bradykinin (0.5 μM) (endothelium-dependent vasodilators) and 16 and 60 mM KCl (results in dilation and constriction of arteries by hyperpolarizing and depolarizing smooth muscle, respectively). These drug solutions were added to the superfusate and applied to the arteries extraluminally for 10 to 15 min before and after intraluminal perfusion with peptides. Effects of these agents were expressed as percent change in myogenic tone (decrease for dilators and increase for constrictors). Experiments were concluded by exposing the arteries to calcium free PCSF to obtain the passive diameter. Cell viability was determined by adding H3334 (Hoechst viability stain, final concentration 1 μM) and propidium iodide (final concentration 1 μM) to the arteriograph after the peptide incubation. Fluorescent micrographs were taken of the vessels after incubation with peptides and following addition of the vital stains using Till Photonics imaging system (Martinsried, Germany).
# [8] = test system: rat cerebral arteries; test: Cell viability staining of arteries (propidium iodide, H3334) after peptide; format: cell-based; settings: after treatment with peptide
# Method: No PI statined smooth muscle cell nuclei were observed.
# as §5
# [9] = intraluminal perfusion of fluorescent peptide
sequence,measurement,setting,value
AGGGYGRKKRRQRRRMVRRFLVTLRIRRA [Tat-P14ARF],% killing (toxicity),[1],65%
same,% killing (toxicity),"[2]; 10 μM peptide, 1 hr",61%
same,IC50,[2]; dose response 1 μM to 10 μM,~10 µM
same,effect on cells,[3],began to round up and subsequently die
same,staining pattern (cell uptake),[4],nuclear staining
same,staining pattern (cell uptake),[5],nuclear staining
same,morphology of the endothelial cells,[6]; after intraluminal exposure,morphology of the endothelial cells was altered
same,labeling/uptake by endothelial cells,[6]; [9],same labeling pattern as the Tat alone
same,labeling/uptake by smooth muscle cells,[6]; [9],No evidence was seen of uptake
same,labeling/uptake by endothelial cells,"[6]; intraluminal perfusion of fluorescent peptide, listed as Tat-P16",taken up by the endothelial cells; also recorded: localized to the endothelial cells
same,endothelium-dependent dilation to histamine and bradykinin,[7],inhibited endothelial cell response to histamine and bradykinin; also recorded: significantly reduced
same,smooth muscle response to 60 and 16 mM KCl,[7],unaffected; also recorded: not affected
same,endothelium-dependent dilation to histamine and bradykinin,[7]; listed as Tat-CDKI,lack of response to vasodilators
same,propidium iodide staining of blood vessels,[8],predominantly horizontal endothelial nuclei being stained indicating cell death
